Results on 1 molecule are retold here after ChEMBL document CHEMBL4145608, “Dehydrodiconiferyl Alcohol Inhibits Osteoclast Differentiation and Ovariectomy-Induced Bone Loss through Acting as an Estrogen Receptor Agonist” (J Nat Prod, 2018).

The subject of experiment [1] is Mus musculus. In words: Anti-osteoporotic activity in Balb/c mouse assessed as decrease in OVX-induced trabecular bone surface in femur at 25 to 100 mg/kg, ip administered for 4 weeks daily by microcomputed tomography. It is filed as functional, organism-based.
Experiment [2] deals with T1, Estrogen receptor (Homo sapiens) (UniProt P03372).
T1 sequence (whole entry): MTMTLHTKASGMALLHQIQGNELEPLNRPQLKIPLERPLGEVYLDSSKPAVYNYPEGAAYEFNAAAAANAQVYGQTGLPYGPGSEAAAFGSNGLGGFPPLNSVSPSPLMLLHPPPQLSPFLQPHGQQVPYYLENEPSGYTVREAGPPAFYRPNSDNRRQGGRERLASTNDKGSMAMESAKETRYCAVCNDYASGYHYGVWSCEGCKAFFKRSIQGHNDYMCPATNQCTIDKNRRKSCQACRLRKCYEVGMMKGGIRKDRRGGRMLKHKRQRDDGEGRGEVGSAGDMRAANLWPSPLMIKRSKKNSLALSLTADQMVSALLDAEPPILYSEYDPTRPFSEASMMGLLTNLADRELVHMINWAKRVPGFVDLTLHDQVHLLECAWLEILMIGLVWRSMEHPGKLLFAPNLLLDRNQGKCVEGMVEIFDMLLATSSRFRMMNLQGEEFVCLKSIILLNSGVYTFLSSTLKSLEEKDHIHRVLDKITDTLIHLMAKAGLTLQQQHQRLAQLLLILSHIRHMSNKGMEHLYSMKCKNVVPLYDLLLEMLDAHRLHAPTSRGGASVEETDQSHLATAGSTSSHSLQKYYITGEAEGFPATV
In words: Agonist activity at estrogen receptor (unknown origin) expressed in mouse RAW264.7 cells after 6 hrs by luciferase reporter gene assay. It is filed as cell-based. Background: A reporter such as luciferase makes a cellular process visible.

Experiment [3] has as its system RAW264.7. In words: Inhibition of RANKL-induced osteoclast differentiation in mouse RAW264.7 cells harboring ERbeta siRNA assessed as decrease in number of TRAP-positive multinucleated cells at 20 uM after 5 days by microscopy. It is filed as functional, cell-based.
Experiment [4] deals with Mus musculus. In words: Anti-osteoporotic activity in Balb/c mouse assessed as decrease in OVX-induced trabecular pattern factor in femur at 25 to 100 mg/kg, ip administered for 4 weeks daily by microcomputed tomography. It counts as functional, organism-based.
In experiment [5] the test system is RAW264.7. In words: Inhibition of RANKL-induced PKA phosphorylation in mouse RAW264.7 cells at 10 to 40 uM after 24 hrs by Western blot analysis. It is filed as cell-based. Background: Immunoblotting shows a protein as a band on a membrane.
The target in a further experiment is Estrogen receptor beta (Homo sapiens, UniProt Q92731). The experiment can be described thus: Inhibition of fluoromone binding to recombinant human full length untagged ERbeta expressed in insect cells after 2 hrs by fluorescence polarization assay. For orientation: Polarisation of emitted light reports the rotation of a fluorescent probe.
Chain of Estrogen receptor beta (Q92731 whole entry): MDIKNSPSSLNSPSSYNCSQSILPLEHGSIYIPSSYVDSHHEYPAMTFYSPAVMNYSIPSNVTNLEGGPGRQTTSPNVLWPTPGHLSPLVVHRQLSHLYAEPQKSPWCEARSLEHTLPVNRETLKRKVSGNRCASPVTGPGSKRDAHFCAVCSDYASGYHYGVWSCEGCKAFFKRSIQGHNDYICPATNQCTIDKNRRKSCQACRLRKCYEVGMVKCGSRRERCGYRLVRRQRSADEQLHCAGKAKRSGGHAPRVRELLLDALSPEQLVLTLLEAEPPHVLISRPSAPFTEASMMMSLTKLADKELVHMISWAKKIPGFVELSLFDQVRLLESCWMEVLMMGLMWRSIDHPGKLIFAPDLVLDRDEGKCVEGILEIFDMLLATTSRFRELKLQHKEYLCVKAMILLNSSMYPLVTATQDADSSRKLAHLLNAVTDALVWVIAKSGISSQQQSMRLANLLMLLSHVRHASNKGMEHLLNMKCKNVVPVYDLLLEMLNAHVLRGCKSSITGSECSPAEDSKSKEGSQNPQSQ
In experiment [6] the test system is RAW264.7. The experiment can be described thus: Inhibition of RANKL-induced osteoclast differentiation in mouse RAW264.7 cells harboring AMPKalpha1 siRNA assessed as decrease in NFATc1 mRNA level at 20 uM after 24 hrs by qRT-PCR method. It is filed as functional, cell-based.
Experiment [7] concerns Mus musculus. In words: Anti-osteoporotic activity in Balb/c mouse assessed as inhibition of OVX-mediated decrease in bone marrow density in femur at 25 to 100 mg/kg, ip administered for 4 weeks daily by microcomputed tomography. It is filed as functional, organism-based.
For experiment [8], the system named is RAW264.7. In words: Inhibition of RANKL-induced osteoclast differentiation in mouse RAW264.7 cells assessed as decrease in number of TRAP-positive multinucleated cells after 5 days by microscopy. It is filed as functional, cell-based.
For experiment [9], the target named is 5'-AMP-activated protein kinase catalytic subunit alpha-1 (Mus musculus) (UniProt Q5EG47). The experiment can be described thus: Activation of AMPKalpha1 in mouse RAW264.7 cells assessed as increase in AMPK phosphorylation at 10 to 40 uM after 24 hrs by Western blot method. It is filed as cell-based.
Chain of 5'-AMP-activated protein kinase catalytic subunit alpha-1 (Mus musculus) (Q5EG47 whole entry): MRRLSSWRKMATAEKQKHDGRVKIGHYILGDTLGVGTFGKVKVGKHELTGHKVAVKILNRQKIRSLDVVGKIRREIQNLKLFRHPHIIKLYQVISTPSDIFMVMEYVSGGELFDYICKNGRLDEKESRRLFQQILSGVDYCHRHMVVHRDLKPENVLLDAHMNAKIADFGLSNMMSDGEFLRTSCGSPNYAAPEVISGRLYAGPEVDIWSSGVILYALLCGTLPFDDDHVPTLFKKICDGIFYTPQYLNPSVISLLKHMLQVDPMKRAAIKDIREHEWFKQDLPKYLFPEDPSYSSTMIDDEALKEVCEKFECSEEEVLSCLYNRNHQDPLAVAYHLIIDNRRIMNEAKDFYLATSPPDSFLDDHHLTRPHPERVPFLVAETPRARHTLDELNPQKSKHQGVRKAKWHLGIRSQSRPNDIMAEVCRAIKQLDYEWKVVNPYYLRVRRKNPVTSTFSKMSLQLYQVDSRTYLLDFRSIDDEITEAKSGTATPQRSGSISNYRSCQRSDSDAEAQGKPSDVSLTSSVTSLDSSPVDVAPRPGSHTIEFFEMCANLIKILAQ
Experiment [10] has as its system Mus musculus. The experiment can be described thus: Anti-osteoporotic activity in Balb/c mouse assessed as inhibition of OVX-mediated decrease in trabecular thickness in femur at 25 to 100 mg/kg, ip administered for 4 weeks daily by microcomputed tomography. It is filed as functional, organism-based.
Experiment [11] concerns RAW264.7. The experiment can be described thus: Inhibition of RANKL-induced osteoclast differentiation in mouse RAW264.7 cells assessed as decrease in TRAP activity at 20 uM after 5 days in presence of ERbeta antagonist PHTPP by microscopy. It is filed as functional, cell-based.
Experiment [12] relates to RAW264.7. The experiment can be described thus: Inhibition of RANKL-induced osteoclast differentiation in mouse RAW264.7 cells harboring ERalpha siRNA assessed as decrease in number of TRAP-positive multinucleated cells at 20 uM after 5 days by microscopy. It counts as functional, cell-based.
The subject of experiment [13] is RAW264.7. The experiment can be described thus: Inhibition of NF-kappaB/p38 MAPK signaling pathway in mouse RAW264.7 cells assessed as reduction in RANKL-induced DC-STAMP mRNA level after 24 hrs by qRT-PCR method. It is filed as cell-based.
In experiment [14] the target is T2, Estrogen receptor (Mus musculus) (UniProt P19785).
T2 sequence (whole entry): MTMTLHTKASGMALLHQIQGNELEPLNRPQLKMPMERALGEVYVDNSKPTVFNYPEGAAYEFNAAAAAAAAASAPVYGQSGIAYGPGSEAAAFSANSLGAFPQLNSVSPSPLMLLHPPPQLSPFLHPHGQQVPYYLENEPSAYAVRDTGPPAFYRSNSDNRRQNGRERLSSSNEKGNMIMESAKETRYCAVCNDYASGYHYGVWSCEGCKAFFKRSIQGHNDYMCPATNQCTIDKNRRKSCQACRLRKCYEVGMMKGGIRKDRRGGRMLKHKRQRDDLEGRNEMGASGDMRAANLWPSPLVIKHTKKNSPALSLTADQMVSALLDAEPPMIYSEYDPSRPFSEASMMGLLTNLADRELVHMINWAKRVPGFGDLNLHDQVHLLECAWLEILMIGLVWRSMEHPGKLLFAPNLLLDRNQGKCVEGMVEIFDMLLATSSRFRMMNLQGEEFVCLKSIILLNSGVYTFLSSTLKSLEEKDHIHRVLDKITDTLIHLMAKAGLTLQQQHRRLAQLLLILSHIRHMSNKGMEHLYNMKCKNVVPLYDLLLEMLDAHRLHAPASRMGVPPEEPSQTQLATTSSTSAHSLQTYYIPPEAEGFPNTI
In words: Induction of estrogen receptor-mediated AMPKalpha1 activation in mouse RAW264.7 cells at 20 uM in presence of estrogen receptor antagonist fulvestrant. It is filed as cell-based.

In experiment [15] the test system is RAW264.7. The experiment can be described thus: Inhibition of NF-kappaB/p38 MAPK signaling pathway in mouse RAW264.7 cells assessed as reduction in RANKL-induced c-Fos mRNA level after 24 hrs by qRT-PCR method. It is filed as cell-based.
Experiment [16] has as its system RAW264.7. The experiment can be described thus: Inhibition of RANKL-induced osteoclast differentiation in mouse RAW264.7 cells harboring ERalpha siRNA assessed as decrease in c-Fos mRNA level at 20 uM after 24 hrs by qRT-PCR method. It counts as functional, cell-based.
The subject of experiment [17] is RAW264.7. The experiment can be described thus: Inhibition of RANKL-induced osteoclast differentiation in mouse RAW264.7 cells harboring AMPKalpha1 siRNA assessed as decrease in TRAP activity at 10 to 40 uM after 5 days by microscopy. It is filed as functional, cell-based.
Experiment [18] has as its system RAW264.7. The experiment can be described thus: Inhibition of RANKL-induced osteoclast differentiation in mouse RAW264.7 cells assessed as decrease in size of TRAP-positive multinucleated cells at 20 uM after 5 days in presence of ERbeta antagonist PHTPP by microscopy. It is filed as functional, cell-based.
The test system of experiment [19] is Mus musculus. In words: Anti-osteoporotic activity in Balb/c mouse assessed as inhibition of OVX-induced cathepsin K mRNA expression level in bone marrow at 25 to 100 mg/kg, ip administered for 4 weeks daily by qRT-PCR method. It is filed as functional, organism-based.

The source made the active and inactive calls. No cut-off for these calls is given here.

In general, IC50 refers to the midpoint of a concentration-inhibition curve.

Consider `COc1cc(C2Oc3c(OC)cc(/C=C/CO)cc3C2CO)ccc1O` (stereo not given), for which the result (with Mus musculus [1]; in experiment [2]; in the experiment on Mus musculus [4]; in experiment [9]) was Active. The inhibition result in the experiment on RAW264.7 [3], with Mus musculus [7], in the experiment with Mus musculus [10], in the experiment with RAW264.7 [11], with RAW264.7 [18] and in the experiment on Mus musculus [19] was “Active” in each case. The inhibition entry in the experiment with RAW264.7 [5], in the experiment with RAW264.7 [6], in the experiment on RAW264.7 [12], with RAW264.7 [16] and in the experiment on RAW264.7 [17] was “inactive” throughout. Besides, the IC50 at Estrogen receptor beta turned out to be 0.286 µM. Besides, the inhibition result in the experiment with RAW264.7 [8], in the experiment on RAW264.7 [13] and with RAW264.7 [15] was “Dose-dependent effect” each time. Besides, the outcome in [14] was inactive.
